Reference: publication PMC6508865, “Dynamics of thymol dietary supplementation in quail (Coturnix japonica): Linking bioavailability, effects on egg yolk total fatty acids and performance traits” (PLoS ONE, 2019)

Experiments:
[1] = test system: female Japanese quail (Coturnix japonica); test: General welfare quality assessment; assay type: in vivo; conditions: 2, 4, 6.25 g of THY/kg feed
Description: A welfare assessment based on observations of physical characteristics was made. Female skin lesions and plumage status were evaluated following a procedure proposed by Pellegrini et al. that is an adapted version of the protocol developed by the Welfare Quality consortium. Briefly, skin lesions, which include wounds that have not healed in the legs, rear end, chest, cloacae and wings were determined using a score scale from 0 to 2, where "0" represents no lesions or scratches, "1" represents at least one lesion < 0.5 cm diameter or less than 3 pecks (punctiform damage ~ 0.1 cm of diameter) or scratches, and "2" reflects one lesion ≥ 0.5 cm of diameter or more than 3 pecks or scratches. Plumage damage was also determined using a score scale from 0 to 2 as follows: "0" represents individuals with no plumage damage or slight wear (only single feathers lacking), "1" represent individuals with one or more body parts that have moderate wear (i.e. damaged feathers worn or deformed) or one or more featherless areas < 1.5 cm in diameter at the larger extent and "2" corresponded to individuals that have at least one featherless area > 1.5 cm in diameter at the largest extent. […]

quail = test system: quail; parameters: method as in PMID 28474397; conditions: THY6, 6.25 g of THY per kg of feed; cited from earlier work
[2] = test system: female Japanese quail (Coturnix japonica); test: Female performance traits (body weight, feed intake, egg laying, egg physical characteristics); assay type: in vivo
Source text: (§1) A total of 50 eighty-five days-old female quail of homogeneous body weights (251 ± 1 g; Mean ± SE) and in their egg-laying peak were selected from an initial group of 96 female individuals. All birds continued receiving a basal diet between 85 and 100 days of age and all variables (see below for details) were registered along this period (Pre-supplementation period, Fig 1). From 100 to 128 days of age (S period, Fig 1), females were randomly assigned to either a chronic dietary supplementation with one of 3 THY doses (THY2, THY4 and THY6; 10 females each) or to one of 2 control groups (basal diet, BASAL, and basal diet with vehicle solution, VEHICLE; 10 females each). Once finished the S period, half of the quail were slaughtered for histological analysis (n = 25; Slaughter 1, Fig 1) and the other half were subjected to a pS period of 21 days, during which all females received the BASAL diet (pS, Fig 1). After this period, the remaining 25 animals were also slaughtered for histological analysis (Slaughter 2, Fig 1). In this way, we assessed whether THY induced changes in variables indicative of tissue damage and if so, whether the potential damages could reverse after 3 weeks of supplement withdrawal.
To assess changes in egg yolk total FA composition, egg physical characteristics, laying rate, body weight, feed intake and general welfare, during the S and pS periods, five sampling points were defined (Sample points, Fig 1): one initial sample point (at 0 days of S); three sample points during the S period (at 7, 14 and 28 days of S); and one sample point at the end of the pS period (21 days of pS). It should be noted that for determinations of THY concentration, eggs and quail droppings were collected offset from the other variables measured by 2 days, thus were collected on days 2, 9, 16, and 26 days of S, and 17 days of pS, respectively.
Female performance was evaluated through the measurement of body weight, feed intake, egg laying rate, egg physical characteristics and a general welfare quality assessment. Body weight was measured once a week throughout the experimental period. Daily feed intake (DFI) was estimated as the difference between the amount of feed supplied to each animal (60 g) and the rest that remained in the feeders the next day (g of feed/day/quail). Egg laying was registered daily and the weekly laying rate was calculated as: (number of eggs / 7 days) x 100. Egg weight, quality characteristics (such as intact, membranous, soft shell and broken shell), morphometric characteristics (egg shape index = (egg width / egg length) x 100) and percentage of constituents (egg yolk, albumen and shell) were registered at each sampling point.

[3] = test system: female Japanese quail (Coturnix japonica); test: Liver histological analysis (histopathological index); assay type: in vivo
Source text: as §1
At each slaughter point birds were euthanized by decapitation and livers were removed and stored in buffered formalin at 10%, processed routinely and stained with hematoxylin and eosin (H&E) and periodic acid-Schiff (PAS). Each slide was examined blinded, with a light microscope (Olympus X-785) and photographed with a digital camera (Moticam Camera 2300, 3 Megapixels). To evaluate histological alterations of liver, tissue was divided into 8 random equal areas to ensure there was no overlapping of the studied areas. For each area, the extension and number of each alteration were recorded with a microscope at 40X magnitude. Histopathological index of liver (HIliv) were estimated using a semi-quantitative protocol following, modified by our colleagues. Briefly, alterations were classified into four major reaction patterns each one of those including alterations that concern to different functional units of the liver or to the whole organ: RP1, circulatory disturbances (dilatation of sinusoids, vascular congestion, hemorrhage); RP2, regressive changes (steatosis or fatty degeneration, hydropic degeneration, nuclear alteration, fibrosis, necrosis); RP3, progressive changes (oval cells, cell hypertrophy and hyperplasia); and RP4, liver inflammation (leukocyte infiltration). Then, for each RP, an index was calculated based on two factors: the pathological importance of the lesions (importance factor, W) (range 1–3) and the extension of pathological change (score value, a) from 0 (unchanged) to 8 (extreme occurrence). Finally, a total liver histopathological index (HIliv) was calculated by adding the single RP liver indices of each individual quail. A greater value of (HIliv) reflects the most severely affected individual.

[4] = overall mean over BASAL, VEHICLE and 2, 4, 6.25 g thymol/kg feed diets and five sampling times, no effect of diet
[5] = overall mean over control and 2, 4, 6.25 g thymol/kg feed diets and two slaughter batches
[6] = overall mean over control and 2, 4, 6.25 g thymol/kg feed diets and two slaughter batches, no effect of diet

**Q.** For Cc1ccc(C(C)C)c(O)c1 [THY, 2 isopropyl-5-methylphenol], which “effect on general well-being” value [1] is on record?
**A.** did not affect

**Q.** And the “PUFA and SFA in yolk total fatty acids and triglycerides of the quail fertile egg” value (quail)?
**A.** enhances PUFA deposition to the detriment of SFA

**Q.** What about the “effect on physical egg traits” value ([2]; 2, 4, 6.25 g of THY/kg feed) of the same molecule?
**A.** did not affect

**Q.** And the “effect of the diet supplied on performance variables (body weight, feed intake, egg laying, morphometric characteristics and constituents of eggs)” value ([2]; 2, 4, 6.25 g of THY/kg feed vs controls, 28 days S and 21 days pS)?
**A.** no effects

**Q.** And the Egg shape index ([2]; (egg width / egg length) x 100, overall mean over BASAL, VEHICLE and 2, 4, 6.25 g thymol/kg feed diets and five sampling times, no effect of diet)?
**A.** 79.5%

**Q.** What about the daily feed intake ([2]; no differences between treatments, all diets) of the same molecule?
**A.** 30.3 ± 1 g/day/animal

**Q.** And the Egg albumen [2, 4]?
**A.** 48.6%

**Q.** And the Egg shell [2, 4]?
**A.** 14.4%

**Q.** And the Egg weight [2, 4]?
**A.** 11.3 g

**Q.** What about the Egg yolk [2, 4] of the same molecule?
**A.** 37.0%

**Q.** What about the “Weekly Body Weight per individual” value [2, 4] of the same molecule?
**A.** 254 g

**Q.** And the “Weekly Feed Intake per individual” value [2, 4]?
**A.** 212 g

**Q.** What about the “Cumulative number of eggs” value ([2]; overall mean over BASAL, VEHICLE and 2, 4, 6.25 g thymol/kg feed diets, no effect of diet) of the same molecule?
**A.** 42

**Q.** What about the “effect on histopathological features of the liver” value ([3]; 2, 4, 6.25 g of THY/kg feed, 28 days S and 21 days pS) of the same molecule?
**A.** did not affect

**Q.** And the “HILiv.Rp3 (liver histopathological index, progressive changes)” value [3, 5]?
**A.** 0,80

**Q.** And the “HILiv.Rp4 (liver histopathological index, inflammation)” value [3, 5]?
**A.** 0,27

**Q.** And the “HILiv (total liver histopathological index)” value [3, 6]?
**A.** 22,58

**Q.** And the “HILiv.Rp2 (liver histopathological index, regressive changes)” value [3, 6]?
**A.** 16,80
